Earlier results, collected in patent US4318905A, “Nonapeptide and decapeptide agonists of luteinizing hormone releasing hormone containing heterocyclic amino acid residues” (Syntex (U.S.A.) Inc., priority 1980, dated 1982).

Details: Gly in the 6-position replaced by a D-amino acid

Substance | activity relative to LH-RH
[D-Ala^6 ]LHRH | increased activity
[D-Phe^6 ]LHRH | increased activity
[D-Trp^6 ]LHRH | increased activity
